{
  "source": "paper PMC6024679",
  "about": "(Toxins, 2018)",
  "key": {"mammalian NaVs": {"test_system": "mammalian NaVs", "conditions": "cited from earlier work", "from_the_text": "(§1) The first insect NaV gene (para) was cloned from Drosophila melanogaster. After that, lots of studies had cloned NaV genes from many arthropod pests and disease vectors, and most insects have only one para-like NaV gene. […] We speculated that μ-SPRTX-Hv2 is also a broad-spectrum insecticide but it is yet to be experimentally determined. In Blattella ger ..."}, "NaV1.7 channel": {"test_system": "NaV1.7 channel", "conditions": "physiological depolarizing voltages; cited from earlier work", "from_the_text": "as §1"}, "meal beetles": {"test_system": "meal beetles", "conditions": "cited from earlier work"}, "cockroaches [1]": {"test_system": "cockroaches", "conditions": "cited from earlier work"}, "[2]": {"test_system": "PaNaV1 and BgNaV1 channels", "conditions": "β-Diguetoxin-Dc1a; cited from earlier work"}, "cockroaches [3]": {"test_system": "cockroaches", "assay": "Lethal effect in cockroaches after injection of toxin, LD50 at 24 h", "assay_type": "in vivo, cockroach", "procedure": "Fifty-six cockroaches were randomly divided into eight groups (n = 7 in each group). Seven groups were used as experimental groups, to which 10 μL toxin solution (dissolved in saline) was injected between the fourth and fifth sternite, at single dose of 0.29, 0.53, 0.96, 1.74, 3.09, 5.56, or 10 nmol/g for each group. The eighth group was used as experimental control and was injected with 10 μL saline. Lethal effect was observed 24 h after injection. The LD50 value was determined by using the improved Karber’s method. For testing the toxicity of μ-SPRTX-Hv2 to mouse, toxin at a single dose of 1.7 nmol/g (7.0 µg/g) was injected intraperitoneally."}, "[4]": {"test_system": "tetrodotoxin sensitive NaVs (TTX-S NaVs) in rat DRG neurons", "assay_type": "cell-based"}, "hNaV1.5": {"test_system": "hNaV1.5", "assay": "Whole-cell patch-clamp of NaV1.5 in HEK293T cells", "assay_type": "cell-based, human (h, as printed in hNaV1.5)"}, "[5]": {"test_system": "NaVs in cockroach DUM neurons", "assay": "Whole-cell patch-clamp of voltage-gated sodium channels in cockroach DUM neurons", "assay_type": "cell-based"}, "DUM HVA CaVs": {"test_system": "DUM HVA CaVs", "assay": "Whole-cell patch-clamp of HVA calcium channels in cockroach DUM neurons", "assay_type": "cell-based"}, "hNaV1.7": {"test_system": "hNaV1.7", "assay": "Whole-cell patch-clamp of NaV1.7 in HEK293T cells", "assay_type": "cell-based, human (h, as printed in hNaV1.7)"}, "mouse": {"test_system": "mouse", "conditions": "7.0 μg/g (1.7 nmol/g), intraperitoneal, single dose, n = 3"}, "[6]": {"test_system": "HVA CaVs in rat DRG neurons", "assay": "Whole-cell patch-clamp of HVA CaVs in rat DRG neurons", "assay_type": "cell-based"}, "rNaV1.8": {"test_system": "rNaV1.8", "assay": "Whole-cell patch-clamp of NaV1.8 in ND7/23 cells", "assay_type": "cell-based, rat (r, as printed in rNaV1.8)"}, "insect CaVs": {"test_system": "insect CaVs", "conditions": "ω-hexatoxin-Hv1a; cited from earlier work"}},
  "note": "Values joined by “and” are separate entries in the source; they are usually repeats but may differ in a detail not shown here. Identical values can stand only once. Like-named read-outs stand apart in the source and are kept apart here.",
  "data": [
    {"compound": "NC1=N[C@H](O)[C@H]2[C@H]3O[C@]4(O)O[C@@H]([C@@H](O)[C@@]2(N1)[C@@H]4O)[C@]3(O)CO", "note": "[TTX, tetrodotoxin]", "values": [
      {"measurement": "mode of action on mammalian NaVs", "setting": "mammalian NaVs", "result": "physically blocking the ion conducting pathway"}
    ]},
    {"compound": "HWTX-IV: toxin acting on NaV1.7 channel", "values": [
      {"measurement": "effect on steady-state activation curve", "setting": "NaV1.7 channel", "result": "did not change the steady-state activation curve"}
    ]},
    {"compound": "brachyin", "values": [
      {"measurement": "LD50", "setting": "meal beetles", "result": "1.55 pm/g of body weight"},
      {"measurement": "LD50", "setting": "cockroaches [1]", "result": "1.02 pm/g of body weight"}
    ]},
    {"compound": "β-Diguetoxin-Dc1a", "values": [
      {"measurement": "selectivity between PaNaV1 and BgNaV1", "setting": "[2]", "result": "showed selectivity between the highly conserved PaNaV1 and BgNaV1 channels"}
    ]},
    {"compound": "μ-sparatoxin-Hv2 [μ-SPRTX-Hv2]", "values": [
      {"measurement": "LD50", "setting": "cockroaches [3]; cockroaches, calculated", "result": "11.7 μg/g of body weight"},
      {"measurement": "LD50", "setting": "cockroaches [3]; in vivo, ip", "result": "3.6 nmol/g of body weight"},
      {"measurement": "LD50", "setting": "cockroaches [3]; synthetic toxin, cockroaches, 10 μL in saline injected between fourth and fifth sternite, single dose 0.29-10 nmol/g, n = 7 per group, 24 h after injection, improved Karber's method", "result": "2.8 nmol/g of body weight"},
      {"measurement": "effect on TTX-S NaVs currents in rat DRG neurons", "setting": "[4]", "result": "did not affect the currents"},
      {"measurement": "effect on NaV1.5 currents", "setting": "hNaV1.5", "result": "did not affect"},
      {"measurement": "IC50", "setting": "[5]", "result": "834 nM and 718 nM"},
      {"measurement": "Ka (slope factor, steady-state activation) after toxin treatment", "setting": "[5]", "result": "4.4 ± 0.4", "unit": "mV"},
      {"measurement": "Kh (slope factor, steady-state inactivation) after toxin treatment", "setting": "[5]", "result": "−5.4 ± 0.3", "unit": "mV"},
      {"measurement": "Va (steady-state activation) after toxin treatment", "setting": "[5]", "result": "−23.0 ± 3.7", "unit": "mV"},
      {"measurement": "Vh (steady-state inactivation) after toxin treatment", "setting": "[5]", "result": "−38.7 ± 4.1", "unit": "mV"},
      {"measurement": "association time constant (τon)", "setting": "[5]", "result": "13.8 ± 1.7", "unit": "s"},
      {"measurement": "block of currents across voltages (I–V relationship)", "setting": "[5]", "result": "blocked the currents at all voltage tested"},
      {"measurement": "effect on initial activation voltage, peak current voltage and reversal voltage", "setting": "[5]", "result": "did not affect the initial activation voltage, the peak current voltage and the reversal voltage"},
      {"measurement": "reversibility of block on washing by bath solution perfusion", "setting": "[5]", "result": "could not be washed off by bath solution perfusion"},
      {"measurement": "effect on DUM HVA CaVs currents", "setting": "DUM HVA CaVs", "result": "did not affect the currents of DUM HVA CaVs"},
      {"measurement": "effect on NaV1.7 currents", "setting": "hNaV1.7", "result": "did not affect"},
      {"measurement": "envenomation symptoms in mouse", "setting": "mouse", "result": "no obvious envenomation symptoms were observed"},
      {"measurement": "effect on HVA CaVs currents in rat DRG neurons", "setting": "[6]", "result": "did not affect the currents"},
      {"measurement": "effect on NaV1.8 currents", "setting": "rNaV1.8", "result": "did not affect"}
    ]},
    {"compound": "ω-hexatoxin-Hv1a", "values": [
      {"measurement": "effect on insect CaVs", "setting": "insect CaVs", "result": "acting on the insect CaVs"}
    ]}
  ]
}
